Data: article PMC12648101, “Targeting SARS-CoV-2 main protease for the discovery of a broad-spectrum COVID-19 inhibitor by intensive multi-tiered validation” (Acta Pharmaceutica Sinica. B, 2025)
“Also recorded” adds a separate entry of the source. Read-outs that look alike come from different tables or passages of the source.

What was measured:
SARS-CoV-2 WT [1] = type: in vivo, K18-hACE2 transgenic mice; details: for lung live viral titers vs Virus group: three days post-infection; for body weight of infected mice: 1000 FFU SARS-CoV-2 WT
[2] = Acute toxicity test in mice; type: in vivo, C57BL/6 mice; details: 200 and 500 mg/kg, i.g.
Protocol: Specific-pathogen-free (SPF) C57BL/6 mice were used, balanced for gender, with males and females weighing 18–20 g. The Institutional Committee approved all animal experiment procedures in this study for Animal Care and Biosafety at the Animal Center, Tianjin University of Traditional Chinese Medicine. CHLA was weighed and subsequently dissolved in a 5% DMSO solution, which was then diluted with normal saline (0.9% sodium chloride solution) and mixed to achieve the desired concentration. To evaluate CHLA's acute toxicity, mice were randomly allocated into three groups (n = 10): a control group administered normal saline, and two treatment groups administered CHLA solution at 200 and 500 mg/kg, respectively. We monitored all mice that occurred twice daily over 14 days, focusing on toxicological signs, changes in body weight, and behavioral abnormalities. Upon concluding the study, specimens from blood, heart, liver, spleen, lung, and kidney were harvested for analysis.

SARS-CoV-2 Omicron BA.5 = assay: microbe, parasite or virus in culture; type: cell-based; details: Severe acute respiratory syndrome coronavirus 2, Vero C1008, 48 h
[3] = Solubility of the dosing preparation at the effective dose; type: physicochemical; details: 300 mg/kg dose, saline with 5% DMSO
Protocol: In vivo, a total of 20 female K18-hACE2 transgenic mice aged 8 weeks were obtained from GemPharmatech (Nanjing, China), which were classified into four groups with five mice in each group: Group 1 served as the untreated, infected control (Virus group); Group 2 received 300 mg/kg of PF-07321332 as the positive control; and Groups 3 and 4 were administered CHLA at doses of 150 and 300 mg/kg, respectively. On Day 0, these K18-hACE2 mice were intranasally inoculated with 1000 FFU of SARS-CoV-2 WT, which was pre-diluted in 50 μL of DMEM. The therapeutic administration was commenced 2 h after infection. The K18-hACE2 transgenic mice were orally administered with either PF-07321332 (300 mg/kg) or CHLA at varying doses (150 and 300 mg/kg), which were dissolved in a saline solution containing 5% DMSO. The mice were euthanized three days post-administration, and the lungs were collected and placed in 1 mL PBS and preserved at −80 °C to evaluate pulmonary virus titers.

SARS-CoV-2 Omicron BA.4 = assay: microbe, parasite or virus in culture; type: cell-based; details: Severe acute respiratory syndrome coronavirus 2, Vero C1008, 48 h
Caco-2 cells = assay: Caco-2 bidirectional permeability assay; type: in vitro ADME
[4] = Caco-2 bidirectional permeability assay; type: in vitro ADME; details: human, pH 7.4
[5] = Pharmacokinetic study in rats (LC-MS/MS); type: in vivo, Sprague–Dawley (SD) rats; details: male, Sprague-Dawley, plasma, rat
Protocol: The PK study was strictly conducted according to the National Medical Products Administration (NMPA) Good Laboratory Practice (GLP) guidelines, which was undertaken at the Animal Center of Tianjin University of Traditional Chinese Medicine. Sprague–Dawley (SD) rats were supplied by Beijing Vital River Laboratory Animal Technology Co., Ltd. (Beijing, China). Male SD rats (n = 5 per group, weights: 180–200 g and age: 6–8 weeks) were administered by CHLA (solubilized in DMSO: 0.9% NaCl = 5:95, v/v) at doses of 10 and 5 mg/kg via intragastric (i.g.) and intravenous (i.v.) routes, respectively. Blood samples were collected at specified intervals post-administration (0.033, 0.083, 0.166, 0.25, 0.5, 1, 4, 6, 8, 12, 24, 36, and 48 h), followed by centrifugation at 4000 rpm (Thermo Scientific Sorvall ST 40R Centrifuge, Osterode, Germany) and 4 °C for 10 min. The supernatant plasma was stored at −20 °C for subsequent analysis.
Analysis was performed on a Shimadzu LC-20AD Prominence Liquid Chromatograph (Shimadzu Corporation, Japan)–AB Sciex API […] mass spectrometer (Applied Biosystems, USA) (LC–MS/MS). Samples were separated on an Agilent Poroshell 120 EC-C18 column (2.7 μm, 3.0 mm × 50 mm) (Agilent, USA). The column temperature was 35 °C, and the mobile phase consisted of water with 0.1% formic acid (v/v, buffer A) and acetonitrile with 0.1% formic acid (v/v, buffer B). The elution was conducted according to a 5-min gradient program (0–0.5 min, 10% buffer B; 0.5–2 min, 10%–90% buffer B; 2–3.5 min, 90% buffer B; 3.5–5 min, 10% buffer B), with the flow rate set at 0.5 mL/min and the injection volume at 10 μL. The mass spectrometry operated in positive MRM mode, targeting the precursor and product ions of CHLA (m/z 953.3 →301.1 and 953.3 →275.1, respectively). Tolbutamide served as the internal standard (IS), with precursor and product ions at 269.1 →170.1. The parameters were analyzed by […] via DAS 3.2.8 software. The regression equation for CHLA, based on the peak area ratio of CHLA to IS against the concentration, was (Eq. (1)):(1) y=0.0000796x+0.000162(r=0.9968) indicating a strong correlation.

[6] = system: SARS-CoV-2 Omicron BA.1.1; assay: microbe, parasite or virus in culture; type: cell-based; details: Severe acute respiratory syndrome coronavirus 2, Vero C1008, 48 h
[7] = system: SARS-CoV-2 Omicron BA.2.3; assay: microbe, parasite or virus in culture; type: cell-based; details: Severe acute respiratory syndrome coronavirus 2, Vero C1008, 48 h
SARS-CoV-2 Delta = assay: microbe, parasite or virus in culture; type: cell-based; details: Severe acute respiratory syndrome coronavirus 2, Vero C1008, 48 h
[8] = Cell viability assay (CCK-8); type: cell-based; details: African green monkey; Vero E6 cells, CCK8, 48 h
Protocol: Cell viability was assessed using the Cell Counting Kit-8 assay (CCK-8, MedChemExpress, China). In brief, Vero E6 cells (ATCC, CRL-1586) at a density of 5 × 10^4 cells/well were seeded into 96-well plates for 24 h. Cells were cultured in Dulbecco's modified Eagle's medium (DMEM) (Gibco, USA), supplemented with 10% (v/v) serum, 100 U/mL penicillin, and 100 μg/mL streptomycin. Serial dilutions of CHLA (200 μL) at concentrations of 100, 80, 60, 40, 20, 10, and 5 μmol/L were added to wells and incubated for another 24 or 48 h, respectively. Following the incubation, the existing medium was replaced with fresh medium containing a 10% CCK-8 solution and incubated at 37 °C for 1 h. Absorbance at 450 nm was measured using a Microplate Reader (TECAN Sunrise™) to determine the final optical density. Data were analyzed using GraphPad Prism 8.0 software (version 8.0). All experiments were performed in triplicate to ensure reliability.

SARS-CoV-2 WT [9] = assay: Antiviral CPE assay in infected Vero E6 cells; type: cell-based; details: Severe acute respiratory syndrome coronavirus 2, Vero C1008, Vero E6, MOI 0.01, 48 h
E166V mutation of M^pro = details: E166V mutant vs wild-type M^pro; cited from earlier work

| SMILES | body weight of infected mice (SARS-CoV-2 WT [1]; 300 mg/kg oral) | lung live viral titers vs Virus group (SARS-CoV-2 WT [1]; 300 mg/kg oral) | EC50 (SARS-CoV-2 Omicron BA.5) [µM] | solubility at the effective dose [3] | EC50 (SARS-CoV-2 Omicron BA.4) [µM] | Papp (A–B) (Caco-2 cells; Caco-2, 5 µmol/L, Table S3) | Papp A→B at 2 h, 5 μmol/L ([4]; Caco-2, 5 μmol/L) [×10⁻⁶ cm/s] | efflux ratio at 2 h, 5 μmol/L ([4]; Caco-2, 5 μmol/L) | EC50 [6] [µM] | EC50 [7] [µM] | EC50 (SARS-CoV-2 Delta) [µM] | EC50 (SARS-CoV-2 WT [9]) [µM] | Papp B→A at 2 h, 5 μmol/L ([4]; Caco-2, 5 µmol/L, Table S3) [×10⁻⁶ cm/s] | other results |
| --- | --- | --- | --- | --- | --- | --- | --- | --- | --- | --- | --- | --- | --- | --- |
| O=C(O)C[C@@H]1C(=O)O[C@H]2[C@@H]3OC(=O)c4cc(O)c(O)c(O)c4-c4c(cc(O)c(O)c4O)C(=O)OC[C@H]2O[C@@H](OC(=O)c2cc(O)c(O)c(O)c2)[C@@H]3OC(=O)c2cc(O)c(O)c3c2[C@H]1[C@H](O)C(=O)O3 [CHLA, chebulagic acid] | weight recovery | significant decrease | 1.91 | superior solubility | 1.89 | 1.20 10-6, cm/s | 1.2 | 0.33 | 0.82 | 1.11 | 1.86 | 0.43 | – | lung live viral titers vs Virus group (SARS-CoV-2 WT [1]; 150 mg/kg oral): no significant difference; antiviral efficacy compared with positive control PF-07321332 (300 mg/kg) (SARS-CoV-2 WT [1]; 300 mg/kg oral, P > 0.05): equivalent to that of PF-07321332; also recorded: comparable to that of PF-07321332; histology of lung, heart, spleen, liver and kidney [2]: No obvious histological changes; acute oral toxicity, overall finding ([2]; 14 days): safe; body weight vs control group ([2]; 14 days): no significant difference; membrane permeability, in words (Caco-2 cells; Caco-2, 5 μmol/L): moderate membrane permeability; Papp (B–A) (Caco-2 cells; Caco-2, 5 µmol/L, Table S3): 0.39 10-6, cm/s; Papp B→A at 2 h, 5 μmol/L ([4]; Caco-2, 5 μmol/L): 0.39 ×10⁻⁶ cm/s; AUC(0-t) ([5]; iv, i.v. 5 mg/kg): 16300 ± 1980 ng·h/mL; Cmax ([5]; iv, i.v. 5 mg/kg): 4160 ± 79.4 ng/mL; Tmax ([5]; iv, i.v. 5 mg/kg): 0.033 h; half-life ([5]; iv, i.v. 5 mg/kg): 39.6 ± 13.5 h; bioavailability ([5]; oral, i.g. 10 mg/kg vs i.v. 5 mg/kg, read-out: oral bioavailability (F)): 7.1%; AUC(0-t) ([5]; po, i.g. 10 mg/kg): 2320 ng·h/mL; Cmax ([5]; po, i.g. 10 mg/kg): 241 ng/mL; Tmax ([5]; po, i.g. 10 mg/kg): 2 h; half-life ([5]; po, i.g. 10 mg/kg): 15.2 h; CC50 at 48 h [8]: > 100 µM |
| C[C@H]1O[C@@H](O[C@H]2[C@@H](O)C[C@H](O[C@H]3[C@@H](O)C[C@H](O[C@H]4CC[C@@]5(C)[C@H](CC[C@@H]6[C@@H]5C[C@@H](O)[C@]5(C)[C@@H](C7=CC(=O)OC7)CC[C@]65O)C4)O[C@@H]3C)O[C@@H]2C)C[C@H](O)[C@@H]1O [Digoxin] | – | – | – | – | – | – | – | 29.6 | – | – | – | – | 20.2 | Papp A→B at 2 h, 5 μmol/L ([4]; Caco-2, 5 µmol/L, Table S3): 0.68 ×10⁻⁶ cm/s |
| Nc1cc(N2CCCCC2)nc(N)[n+]1[O-] [Minoxidil] | – | – | – | – | – | 5.94 10-6, cm/s | 5.94 | 0.96 | – | – | – | – | 5.71 | – |
| CC(C)(C)[C@H](NC(=O)C(F)(F)F)C(=O)N1C[C@H]2[C@@H]([C@H]1C(=O)N[C@H](C#N)C[C@@H]1CCNC1=O)C2(C)C [PF-07321332, reference compound] | weight recovery | significant decrease | 0.04 | poor solubility | 0.08 | – | – | – | 0.05 | 0.04 | 0.05 | 0.03 | – | loss of inhibitory efficacy caused by the E166V mutation (E166V mutation of M^pro): over 200 fold |
